Test results: PubChem BioAssay AID1259407 (Chemical Carcinogenesis Research Information System (CCRIS), 2018)
The source made the active and inactive calls. No rule for the calls is given here.

Test system: CCRIS mutagenicity, Ames/micronucleus/aberration tests
Assay: CCRIS mutagenicity studies
[1] = Test System: AMES SALMONELLA TYPHIMURIUM, Strain/Indicator: TA98, Metabolic Activation: NONE, Method: PREINCUBATION

O=[N+]([O-])c1cc([As](=O)(O)O)ccc1O
mutagenic call (End Point: IN VITRO CHROMOSOMAL ABERRATIONS, Test System: CHO CELLS, Metabolic Activation: RAT, LIVER, S-9, AROCLOR 1254): inactive; negative; testing limited by solubility of the chemical
mutagenic call (End Point: IN VITRO CHROMOSOMAL ABERRATIONS, Test System: CHO CELLS, Metabolic Activation: RAT, LIVER, S-9, PHENOBARBITAL AND BETA-NAPHTHOFLAVONE): inactive; negative
mutagenic call (Test System: AMES SALMONELLA TYPHIMURIUM, Strain/Indicator: TA98, Metabolic Activation: HAMSTER, LIVER, S-9, AROCLOR 1254 (10%), Method: PREINCUBATION): inactive; negative
mutagenic call (Test System: AMES SALMONELLA TYPHIMURIUM, Strain/Indicator: TA98, Metabolic Activation: HAMSTER, LIVER, S-9, AROCLOR 1254, Method: PREINCUBATION): inactive; negative
mutagenic call [1]: inactive; negative
mutagenic call (Test System: AMES SALMONELLA TYPHIMURIUM, Strain/Indicator: TA98, Metabolic Activation: RAT, LIVER, S-9, AROCLOR 1254 (10%), Method: PREINCUBATION): inactive; negative
mutagenic call (Test System: AMES SALMONELLA TYPHIMURIUM, Strain/Indicator: TA98, Metabolic Activation: RAT, LIVER, S-9, AROCLOR 1254, Method: PREINCUBATION): inactive; negative
mutagenic call (Test System: AMES SALMONELLA TYPHIMURIUM, Strain/Indicator: TA100, Metabolic Activation: HAMSTER, LIVER, S-9, AROCLOR 1254 (10%), Method: PREINCUBATION): inactive; negative
mutagenic call (Test System: AMES SALMONELLA TYPHIMURIUM, Strain/Indicator: TA100, Metabolic Activation: HAMSTER, LIVER, S-9, AROCLOR 1254, Method: PREINCUBATION): inactive; negative
mutagenic call (Test System: AMES SALMONELLA TYPHIMURIUM, Strain/Indicator: TA100, Metabolic Activation: NONE, Method: PREINCUBATION): inactive; negative
mutagenic call (Test System: AMES SALMONELLA TYPHIMURIUM, Strain/Indicator: TA100, Metabolic Activation: RAT, LIVER, S-9, AROCLOR 1254 (10%), Method: PREINCUBATION): inactive; negative
mutagenic call (Test System: AMES SALMONELLA TYPHIMURIUM, Strain/Indicator: TA100, Metabolic Activation: RAT, LIVER, S-9, AROCLOR 1254, Method: PREINCUBATION): inactive; negative
mutagenic call (Test System: AMES SALMONELLA TYPHIMURIUM, Strain/Indicator: TA1535, Metabolic Activation: HAMSTER, LIVER, S-9, AROCLOR 1254 (10%), Method: PREINCUBATION): inactive; negative
mutagenic call (Test System: AMES SALMONELLA TYPHIMURIUM, Strain/Indicator: TA1535, Metabolic Activation: HAMSTER, LIVER, S-9, AROCLOR 1254, Method: PREINCUBATION): inactive; negative
mutagenic call (Test System: AMES SALMONELLA TYPHIMURIUM, Strain/Indicator: TA1535, Metabolic Activation: NONE, Method: PREINCUBATION): inactive; negative
mutagenic call (Test System: AMES SALMONELLA TYPHIMURIUM, Strain/Indicator: TA1535, Metabolic Activation: RAT, LIVER, S-9, AROCLOR 1254 (10%), Method: PREINCUBATION): inactive; negative
mutagenic call (Test System: AMES SALMONELLA TYPHIMURIUM, Strain/Indicator: TA1535, Metabolic Activation: RAT, LIVER, S-9, AROCLOR 1254, Method: PREINCUBATION): inactive; negative
mutagenic call (Test System: AMES SALMONELLA TYPHIMURIUM, Strain/Indicator: TA1537, Metabolic Activation: HAMSTER, LIVER, S-9, AROCLOR 1254 (10%), Method: PREINCUBATION): inactive; negative
mutagenic call (Test System: AMES SALMONELLA TYPHIMURIUM, Strain/Indicator: TA1537, Metabolic Activation: HAMSTER, LIVER, S-9, AROCLOR 1254, Method: PREINCUBATION): inactive; negative
mutagenic call (Test System: AMES SALMONELLA TYPHIMURIUM, Strain/Indicator: TA1537, Metabolic Activation: NONE, Method: PREINCUBATION): inactive; negative
mutagenic call (Test System: AMES SALMONELLA TYPHIMURIUM, Strain/Indicator: TA1537, Metabolic Activation: RAT, LIVER, S-9, AROCLOR 1254 (10%), Method: PREINCUBATION): inactive; negative
mutagenic call (Test System: AMES SALMONELLA TYPHIMURIUM, Strain/Indicator: TA1537, Metabolic Activation: RAT, LIVER, S-9, AROCLOR 1254, Method: PREINCUBATION): inactive; negative
mutagenic call (Test System: MOUSE LYMPHOMA, Strain/Indicator: L5178Y (TK+/TK-), Metabolic Activation: NONE, Method: SUSPENSION/PLATE): active; positive

O=C(O)c1cc([N+](=O)[O-])ccc1[N+](=O)[O-]
mutagenic call [1]: active; positive
mutagenic call (Test System: AMES SALMONELLA TYPHIMURIUM, Strain/Indicator: TA98, Metabolic Activation: RAT, LIVER, S-9, KANECHLOR 500, Method: PREINCUBATION): active; positive
mutagenic call (Test System: AMES SALMONELLA TYPHIMURIUM, Strain/Indicator: TA100, Metabolic Activation: RAT, LIVER, S-9, KANECHLOR 500, Method: PREINCUBATION): inactive; negative
